Experimental data taken from US9315545B2, “Hepcidin mimetic peptides and uses thereof” (MERGANSER BIOTECH, INC., priority 2014, dated 2016).
Values after ≈ are worked out from the molar mass of the structure shown. “Also recorded” adds a separate entry of the source.

What was measured:
[1] = Compound blood levels after subcutaneous administration in the rat (LC/MS); format: in vivo; settings: in vivo, sc, 7.5 mg/kg
Procedure: (§1) Compounds 1-4 were tested in rats to determine compound pharmacokinetics and hepcidin mimetic activity in vivo as measured by serum iron reduction. The effectiveness of the compounds for serum iron reduction should correlate with the treatment of iron metabolism disorders. Individual compounds, in this example and the following examples were generally formulated in DSPE-PEG(2000) (SUNBRIGHT® DSPE-020CN, NOF America Corporation) (30 mg/mL) and dosed subcutaneously at a compound dose of 7.5 mg/kg.
(§2) The compound was prepared according to the following typical preparation. The dosing solution was prepared (7.5 mg compound/mL in clear solution) by weighing the compound into vial and an aliquot of ethanol is added into the vial and mixture vortexed. DSPE-020CN was added and the solution was vortexed, and, if necessary, the mixture was heated at 37° C. for 10-15 minutes to fully dissolve the DSPE-020CN. The ethanol was evaporated with nitrogen gas stream for 1-3 hours. Sterile water was then added and the mixture was vortexed or, if necessary, sonicated to give a clear solution.
After subcutaneous injection compound quantities in blood were measured over the subsequent 24 hours via LC/MS.

[2] = Stability in sodium acetate buffer pH 6 at two temperatures, reversed-phase HPLC; format: physicochemical; settings: for % Purity of the Compound, 6 Hours 25° C. / % Purity of the Compound, 6 Hours 40° C.: sodium acetate buffer pH 6, 6 hours; for Change in Main Peak % Area After 18 H Incubation, 25° C. / Change in Main Peak % Area After 18 H Incubation, 40° C.: sodium acetate buffer pH 6, 18 h; for % Purity of the Compound, 18 Hours 25° C. / % Purity of the Compound, 18 Hours 40° C.: sodium acetate buffer pH 6, 18 hours; for % Purity of the Compound, Initial: sodium acetate buffer pH 6, initial
Procedure: Three other compounds were also tested, Compound 2, Compound 3, and Compound 4. Compounds 2, 3, and 4 are modifications of Compound 1 at the sidechain of Cysteine 7. Compound 2 has a disulfide bond attached to Cysteine 7, Compound 3 has thioester bond attached to Cysteine 7, and Compound 4 has an ethyl group attached to the sidechain sulfur of Cysteine 7. The peptides were incubated in sodium acetate buffer pH 6 at two temperature conditions and then analyzed via reversed-phase HPLC. The chromatography performed was with an Ascentis Phenyl 2.7 micron column (4.6×150 mm). The binary gradient (1 ml/min) was 36% to 56% B in 40 minutes followed by an increase to 65% B in 5 minutes where A=0.1% trifluoroacetic acid in water and B=0.1% trifluoroacetic acid in acetonitrile.

[3] = physchem; format: physicochemical
Procedure: Different solvent compositions with different properties that are commonly used as a basis for pharmaceutical compositions were added to known quantities of the indicated compound and mixed. If a clear solution was not obtained, additional solvent was added and the solution mixed. […] For example “50-100” would indicate that the compound was not soluble at 100 mg/mL but upon additional solvent to have a final concentration of 50 mg/mL, the compound was soluble.

[4] = format: physicochemical
Procedure: An additional critical aspect in drug delivery is retention of solubility with time (physical stability), especially under refrigerated conditions. […] Unexpectedly, clear differences in physical stability were observed between Compound 5 and other compounds with only minor changes in sequence (e.g. Compounds 7 and 8). The combination of unexpected solubility of greater than 100 mg/mL in mildly acidic conditions and lack of significant changes in solution character after refrigeration, are unexpected and advantageous for a pharmaceutical product.

[5] = In vitro stability of compounds in rat plasma (37° C.); format: in vitro ADME; settings: for half-life: rat, plasma
Procedure: The in vitro stability of Compounds 1-4 in rat plasma at 37° C. was examined to give an indication of stability in a whole animal model (Table 6).

[6] = tested on: serum iron; assay: Serum iron reduction after subcutaneous administration in the rat (hepcidin mimetic activity); format: in vivo; settings: 7.5 mg/kg
Procedure: as §1, §2
Serum iron was measured during the 24 h following subcutaneous administration in a rat of Compounds 1-4 and is summarized in FIG. 1. […] The observed effects on serum iron were unexpectedly similar in Compounds 1-3 despite the differences at Cysteine 7 and the differences in blood levels of the compounds (Table 7).

[7] = Solubility (mg/mL) at Ambient Temperature, 30% PEG 400
[8] = Solubility (mg/mL) at Ambient Temperature, 50% EtOH/water
[9] = Solubility (mg/mL) at Ambient Temperature, Water
[10] = pH 2.3, Solubility (mg/mL) at Ambient Temperature, 10% Tween 80 pH 2.3-2.8
[11] = pH 2.7, Solubility (mg/mL) at Ambient Temperature, 50% propylene glycol, pH 2.7
[12] = pH 4.5, Solubility (mg/mL) at Ambient Temperature, 10% Tween 80 pH 4.5-5.0
[13] = pH 5.5, Solubility (mg/mL) at Ambient Temperature, 10% Tween 80 pH 5.5-6.0

AUC(0-t) [1] [ng·h/mL] | blood levels of Compound 1 (metabolite) after dosing the labelled compound [1] | % Purity of the Compound, 6 Hours 25° C. [2] [%] | % Purity of the Compound, 6 Hours 40° C. [2] [%] | Change in Main Peak % Area After 18 H Incubation, 25° C. [2] [%] | Change in Main Peak % Area After 18 H Incubation, 40° C. [2] [%] | % Purity of the Compound, 18 Hours 25° C. [2] [%] | % Purity of the Compound, 18 Hours 40° C. [2] [%] | % Purity of the Compound, Initial [2] [%] | solubility [3, 7] [mg/mL] | solubility [3, 8] [mg/mL] | solubility [3, 9] [mg/mL] | solubility [3, 10] [mg/mL] | solubility [3, 11] [mg/mL] | solubility [3, 12] [mg/mL] | solubility [3, 13] [mg/mL] | In vitro plasma stability (Ratio of compound/benfluorex (std) degradation) [5] | half-life [5] [h] | SMILES | also measured
1010 | unexpectedly higher than expected | 99.6 | 99.4 | −0.2 | −0.1 | 99.3 | 99.4 | 99.5 | 25 to 35 (≈ 13.9 to 19.4 mM) | > 100 | 50 to 100 (≈ 27.7 to 55.4 mM) | 60 to 100 (≈ 33.3 to 55.4 mM) | 50 to 100 (≈ 27.7 to 55.4 mM) | 50 to 100 (≈ 27.7 to 55.4 mM) | 25 to 30 (≈ 13.9 to 16.6 mM) | 0.98 | 0.667 | CCCCCCCCCCCCCCCCNC(=O)CN(CC(N)=O)C(=O)CCCCCNC(=O)C(Cc1c[nH]c2ccccc12)NC(=O)C(CCCNC(=N)N)NC(=O)C(CSSC)NC(=O)C(CCCNC(=N)N)NC(=O)CC1CCCN1C(=O)C(NC(=O)C(Cc1c[nH]cn1)NC(=O)C(NC(=O)CNCC(=O)O)C(C)O)C(c1ccccc1)c1ccccc1 (stereo not shown) [Compound 2] | degradation after 18 hours at 40° C. (in words) [2]: little degradation observed; significant degradation peaks observed by HPLC [2]: no significant degradation peak; change of solubility with pH (in words) ([3]; pH 4): marked decrease in solubility above pH 4; solubility ([3]; pH 5, Solubility (mg/mL) at Ambient Temperature, 2% Tween 80 pH 5): < 50 mg/mL; solubility ([3]; pH 6.4, Solubility (mg/mL) at Ambient Temperature, 2% Tween pH 6.4): < 10 mg/mL; Solution Appearance after 7 days Storage at 2-8° C., 2% Tween 80 pH 5 ([4]; 2% Tween 80 pH 5): Gel; Solution Appearance after 7 days Storage at 2-8° C., 2% Tween pH 6.4 ([4]; 2% Tween pH 6.4): Gel; Solution Appearance after 7 days Storage at 2-8° C., 10% Tween 80 pH 2.3-2.8 ([4]; 10% Tween 80 pH 2.3-2.8): Gel; Solution Appearance after 7 days Storage at 2-8° C., 10% Tween 80 pH 4.5-5.0 ([4]; 10% Tween 80 pH 4.5-5.0): Gel; Solution Appearance after 7 days Storage at 2-8° C., 30% PEG 400 ([4]; 30% PEG 400): Gel; Solution Appearance after 7 days Storage at 2-8° C., 50% EtOH/water ([4]; 50% EtOH/water): Gel; Solution Appearance after 7 days Storage at 2-8° C., 50% propylene glycol, pH 2.7 ([4]; 50% propylene glycol, pH 2.7): Gel; Solution Appearance after 7 days Storage at 2-8° C., Water ([4]; Water): Gel
25600 | No levels of Compound 1 were detected | 96.8 | 96.6 | −0.5 | 0.3 | 96.2 | 97.0 | 96.7 | – | – | – | – | – | – | – | 2.74 | 1.87 | CCCCCCCCCCCCCCCCNC(=O)CN(CC(N)=O)C(=O)CCCCCNC(=O)C(Cc1c[nH]c2ccccc12)NC(=O)C(CCCNC(=N)N)NC(=O)C(CSCC)NC(=O)C(CCCNC(=N)N)NC(=O)CC1CCCN1C(=O)C(NC(=O)C(Cc1c[nH]cn1)NC(=O)C(NC(=O)CNCC(=O)O)C(C)O)C(c1ccccc1)c1ccccc1 (stereo not shown) [Compound 4] | blood levels of the dosed compound (in words) [1]: very high blood levels; degradation after 18 hours at 40° C. (in words) [2]: no evidence of degradation involving the cysteine; reduction in serum iron (in words) [6]: minimal reduction in serum iron after 24 h; also recorded: little activity in vivo
– | – | – | – | – | – | – | – | – | > 35 | > 100 | 50 to 100 (≈ 27.7 to 55.4 mM) | > 100 | > 100 | > 50 | 50 to 100 (≈ 27.7 to 55.4 mM) | – | – | CCCCCCCCCCCCCCCCNC(=O)CN(CC(N)=O)C(=O)CCCCCNC(=O)[C@H](Cc1c[nH]c2ccccc12)NC(=O)[C@H](CCCNC(=N)N)NC(=O)[C@H](CSSC)NC(=O)[C@H](CCCNC(=N)N)NC(=O)[C@@H]1CCCN(C(=O)[C@@H](NC(=O)[C@H](Cc2c[nH]cn2)NC(=O)[C@@H](NC(=O)CNCC(=O)O)[C@@H](C)O)C(c2ccccc2)c2ccccc2)C1 [Compound 7] | –
– | – | – | – | – | – | – | – | – | 25 to 35 (≈ 13.9 to 19.4 mM) | > 100 | 50 to 100 (≈ 27.7 to 55.4 mM) | 40 to 70 (≈ 22.2 to 38.8 mM) | 30 to 50 (≈ 16.6 to 27.7 mM) | > 50 | 50 to 100 (≈ 27.7 to 55.4 mM) | – | – | CCCCCCCCCCCCCCCCNC(=O)CN(CC(N)=O)C(=O)CCCCCNC(=O)[C@H](Cc1c[nH]c2ccccc12)NC(=O)[C@H](CCCNC(=N)N)NC(=O)[C@H](CSSC)NC(=O)[C@H](CCCNC(=N)N)NC(=O)C1CCN(C(=O)[C@@H](NC(=O)[C@H](Cc2c[nH]cn2)NC(=O)[C@@H](NC(=O)CNCC(=O)O)[C@@H](C)O)C(c2ccccc2)c2ccccc2)CC1 [Compound 8] | –
– | – | – | – | – | – | – | – | – | 20 to 35 (≈ 10.5 to 18.4 mM) | > 100 | 50 to 100 (≈ 26.3 to 52.5 mM) | 30 to 50 (≈ 15.8 to 26.3 mM) | 30 to 50 (≈ 15.8 to 26.3 mM) | 25 to 50 (≈ 13.1 to 26.3 mM) | 25 to 35 (≈ 13.1 to 18.4 mM) | – | – | CCCCCCCCCCCCCCCCNC(=O)CN(CC(N)=O)C(=O)CCCCCNC(=O)[C@H](Cc1c[nH]c2ccccc12)NC(=O)[C@H](CCCNC(=N)N)NC(=O)[C@H](CSSC)NC(=O)[C@H](CCCNC(=N)N)NC(=O)C[C@@H]1CCCN1C(=O)[C@@H](NC(=O)[C@H](Cc1c[nH]cn1)NC(=O)[C@@H](NC(=O)CN(CC(=O)O)C(=O)CNC(C)=O)[C@@H](C)O)C(c1ccccc1)c1ccccc1 [Compound 9] | –
– | – | – | – | – | – | – | – | – | < 10 | < 10 | < 25 | 15 to 20 (≈ 8.5 to 11.3 mM) | < 20 | < 10 | < 10 | – | – | CCCCCCCCCCCCCCCCNC(=O)CN(CC(N)=O)C(=O)CCCCCNC(=O)[C@H](Cc1c[nH]c2ccccc12)NC(=O)[C@H](CCCNC(=N)N)NC(=O)[C@H](CSSC)NC(=O)[C@H](CCCNC(=N)N)NC(=O)CCNC(=O)[C@@H](NC(=O)[C@H](Cc1c[nH]cn1)NC(=O)[C@@H](NC(=O)CNCC(=O)O)[C@@H](C)O)C(c1ccccc1)c1ccccc1 [Compound 10] | solubility characteristics compared to the other compounds (in words) [3]: does not improve solubility characteristics

SMILES | AUC(0-t) [1] [ng·h/mL] | blood levels of Compound 1 (metabolite) after dosing the labelled compound [1] | % Purity of the Compound, 6 Hours 25° C. [2] [%] | % Purity of the Compound, 6 Hours 40° C. [2] [%] | Change in Main Peak % Area After 18 H Incubation, 25° C. [2] [%] | Change in Main Peak % Area After 18 H Incubation, 40° C. [2] [%] | % Purity of the Compound, 18 Hours 25° C. [2] [%] | % Purity of the Compound, 18 Hours 40° C. [2] [%] | % Purity of the Compound, Initial [2] [%] | solubility [3, 7] [mg/mL] | solubility [3, 8] [mg/mL] | solubility [3, 9] [mg/mL] | solubility [3, 10] [mg/mL] | solubility [3, 11] [mg/mL] | solubility [3, 12] [mg/mL] | solubility [3, 13] [mg/mL] | In vitro plasma stability (Ratio of compound/benfluorex (std) degradation) [5] | half-life [5] [h] | also measured
CCCCCCCCCCCCCCCCNC(=O)CN(CC(N)=O)C(=O)CCCCCNC(=O)C(Cc1c[nH]c2ccccc12)NC(=O)C(CCCNC(=N)N)NC(=O)C(CSC(C)=O)NC(=O)C(CCCNC(=N)N)NC(=O)CC1CCCN1C(=O)C(NC(=O)C(Cc1c[nH]cn1)NC(=O)C(NC(=O)CNCC(=O)O)C(C)O)C(c1ccccc1)c1ccccc1 (stereo not shown) [Compound 3] | 12200 | comparable to the levels observed when just Compound 1 was dosed | 96.9 | 84.9 | −2.3 | −30 | 95.1 | 67.2 | 97.3 | – | – | – | – | – | – | – | 1.78 | 1.22 | blood levels relative to those observed in Compound 1 [1]: 5-9 times; degradation after 18 hours at 40° C. [2]: 30%; significant degradation peaks observed by HPLC [2]: multiple major peaks
